In patent EP1433789A1, “Pyrrolopyrazines and their use as selective apoptosis inducers” (Aponetics AG, priority 2002, dated 2004):

Key:
A20 [1] = test: Hoechst 33342 nuclear staining (Table 3); type: cell-based, mouse; design: key: 0 relating to no activity; 1 relating to weak activity comprising less than 50% of the cells; score 2 relating to strong activity comprising more than 50% of the cells
Description: (§1) This assay is performed in 96 well tissue culture plates. Appropriate number of cells (adherent cells: 3 - 5*10^3, suspension cells: 8 - 10*10^3) are being seeded out in 80 µl complete medium. Adherent cells are incubated for 24 h for proper spreading out before addition of test compounds while suspension cells are immediately treated with test compounds after seeding out. The test compounds are added in 20 µl complete medium containing max 5% DMSO. The final compound concentrations in the assays are 10 µM, 3 µM,1 µM and 0.3 µM, respectively. After 24 h or 48 h incubation at culture conditions, 10 µl medium containing Hoechst 33342 dye (Sigma B-2261) at 2-5 µg/ml are added to each well. The assay plates are then further incubated for 30 minutes and subsequently analyzed with a standard inverted fluorescence microscope. The readout allows the determination of the fraction of apoptotic nuclei as well as other morphological criteria specific for apoptosis as a function of the treatment. The following scores are used: 0 relating to no activity, 1 relating to weak activity comprising less than 50% of the cells and score 2 relating to strong activity comprising more than 50% of the cells.

Jurkat [2] = test: AnnexinV/7-AAD staining; type: cell-based, human; conditions: 10 µM, 24 h treatment
Description: (§2) Adherent cells (1 - 2*10^5) are 24 h prior to compound treatment seeded into 24 well tissue culture plates. Suspension cells are pipetted into P-tubes immediately before treatment. Test compounds are added leading to a final concentrations of 10 µM. After 24 h treatment cells are harvested (in case of adherent cells by trypsinization) and transferred to FACS tubes (BD Biosciences). After centrifugation and removal of the supernatant, 100 µl complete medium containing AnnexinV-GST (10 µg) is added, mixed and incubated at 4°C for 30 minutes. Subsequently, the cells are washed once with medium and incubated with 100 µl anti-GST Alexa 488 (Molecular Probes A-11131) in medium diluted 1:500 for 30 minutes at 4°C. Then, cells are washed once and stained with 1 µg/ml 7-aminoactinomycin D (7-AAD) (Molecular Probes A-1310) in 250 µl medium and analyzed on the FACSCalibur™. AnnexinV is measured in FL1 whereas 7-AAD is measured in FL3. In Table 5 the percentage of positively stained cells after treatment with the respective compounds are indicated. The following scores are used: Score 0 relates to less than 10%, score 1 relates to more than 10% but less than 50% and score 2 relates to more than 50% positivity.

Ramos [3] = test: AnnexinV/7-AAD staining; type: cell-based, human; conditions: 10 µM, 24 h treatment
Description: as §2

HeLa [4] = test: AnnexinV/7-AAD staining; type: cell-based, human; conditions: 10 µM, 24 h treatment
Description: as §2

A20 [5] = test: AnnexinV/7-AAD staining; type: cell-based, mouse; conditions: A20, 10 µM, 24 h treatment
Description: as §2

K562 = test: Hoechst 33342 nuclear staining (Table 3); type: cell-based, human; design: key: 0 relating to no activity; 1 relating to weak activity comprising less than 50% of the cells; score 2 relating to strong activity comprising more than 50% of the cells
Description: as §1

Jurkat [6] = test: Hoechst 33342 nuclear staining (Table 3); type: cell-based, human; design: key: 0 relating to no activity; 1 relating to weak activity comprising less than 50% of the cells; score 2 relating to strong activity comprising more than 50% of the cells
Description: as §1

Ramos [7] = test: Hoechst 33342 nuclear staining (Table 3); type: cell-based, human; design: key: 0 relating to no activity; 1 relating to weak activity comprising less than 50% of the cells; score 2 relating to strong activity comprising more than 50% of the cells; conditions: 24h
Description: as §1

HeLa [8] = test: Hoechst 33342 nuclear staining (Table 3); type: cell-based, human; design: key: 0 relating to no activity; 1 relating to weak activity comprising less than 50% of the cells; score 2 relating to strong activity comprising more than 50% of the cells
Description: as §1

[2-(3-Methoxy-6,6-dimethyl-5,6-dihydro-6a,7,12-triaza-dibenzofluoren-2-yloxy)-ethyl]-dimethyl-amine [No. 6]
Hoechst 33342 nuclear staining (A20 [1]; A20, 24h, conc 0.3 (µM)): 0
Hoechst 33342 nuclear staining (A20 [1]; A20, 24h, conc 1 (µM)): 0
Hoechst 33342 nuclear staining (A20 [1]; A20, 24h, conc 3 (µM)): 0
Hoechst 33342 nuclear staining (A20 [1]; A20, 24h, conc 10 (µM)): 0
Hoechst 33342 nuclear staining (A20 [1]; A20, 48h, conc 0.3 (µM)): 0
Hoechst 33342 nuclear staining (A20 [1]; A20, 48h, conc 1 (µM)): 0
Hoechst 33342 nuclear staining (A20 [1]; A20, 48h, conc 3 (µM)): 0
Hoechst 33342 nuclear staining (A20 [1]; A20, 48h, conc 10 (µM)): 2 (score 2 relating to strong activity comprising more than 50% of the cells)
percentage of positively stained cells (AnnexinV/7-AAD staining) (Jurkat [2]): 2 (score 2 relates to more than 50% positivity)
percentage of positively stained cells (AnnexinV/7-AAD staining) (Ramos [3]): 2 (score 2 relates to more than 50% positivity)
percentage of positively stained cells (AnnexinV/7-AAD staining) (HeLa [4]): 2 (score 2 relates to more than 50% positivity)
percentage of positively stained cells (AnnexinV/7-AAD staining) (A20 [5]): 2 (score 2 relates to more than 50% positivity)
Hoechst 33342 nuclear staining (K562; K562, 24h, conc 0.3 (µM)): 0
Hoechst 33342 nuclear staining (K562; K562, 24h, conc 1 (µM)): 0
Hoechst 33342 nuclear staining (K562; K562, 24h, conc 3 (µM)): 0
Hoechst 33342 nuclear staining (K562; K562, 24h, conc 10 (µM)): 2 (score 2 relating to strong activity comprising more than 50% of the cells)
Hoechst 33342 nuclear staining (K562; K562, 48h, conc 0.3 (µM)): 0
Hoechst 33342 nuclear staining (K562; K562, 48h, conc 1 (µM)): 0
Hoechst 33342 nuclear staining (K562; K562, 48h, conc 3 (µM)): 0
Hoechst 33342 nuclear staining (K562; K562, 48h, conc 10 (µM)): 2 (score 2 relating to strong activity comprising more than 50% of the cells)
Hoechst 33342 nuclear staining (Jurkat [6]; 24h, conc 0.3 (µM)): 0
Hoechst 33342 nuclear staining (Jurkat [6]; 24h, conc 1 (µM)): 0
Hoechst 33342 nuclear staining (Jurkat [6]; 24h, conc 3 (µM)): 0
Hoechst 33342 nuclear staining (Jurkat [6]; 24h, conc 10 (µM)): 2 (score 2 relating to strong activity comprising more than 50% of the cells)
Hoechst 33342 nuclear staining (Jurkat [6]; 48h, conc 0.3 (µM)): 0
Hoechst 33342 nuclear staining (Jurkat [6]; 48h, conc 1 (µM)): 2 (score 2 relating to strong activity comprising more than 50% of the cells)
Hoechst 33342 nuclear staining (Jurkat [6]; 48h, conc 3 (µM)): 2 (score 2 relating to strong activity comprising more than 50% of the cells)
Hoechst 33342 nuclear staining (Jurkat [6]; 48h, conc 10 (µM)): 2 (score 2 relating to strong activity comprising more than 50% of the cells)
Hoechst 33342 nuclear staining (Ramos [7]; conc 0.3 (µM)): 0
Hoechst 33342 nuclear staining (Ramos [7]; conc 1 (µM)): 0
Hoechst 33342 nuclear staining (Ramos [7]; conc 3 (µM)): 0
Hoechst 33342 nuclear staining (Ramos [7]; conc 10 (µM)): 2 (score 2 relating to strong activity comprising more than 50% of the cells)
Hoechst 33342 nuclear staining (HeLa [8]; 24h, conc 0.3 (µM)): 0
Hoechst 33342 nuclear staining (HeLa [8]; 24h, conc 1 (µM)): 0
Hoechst 33342 nuclear staining (HeLa [8]; 24h, conc 3 (µM)): 0
Hoechst 33342 nuclear staining (HeLa [8]; 24h, conc 10 (µM)): 2 (score 2 relating to strong activity comprising more than 50% of the cells)
Hoechst 33342 nuclear staining (HeLa [8]; 48h, conc 0.3 (µM)): 0
Hoechst 33342 nuclear staining (HeLa [8]; 48h, conc 1 (µM)): 0
Hoechst 33342 nuclear staining (HeLa [8]; 48h, conc 3 (µM)): 0
Hoechst 33342 nuclear staining (HeLa [8]; 48h, conc 10 (µM)): 2 (score 2 relating to strong activity comprising more than 50% of the cells)
